According to US8278037B2, “N-acetylgalactosamine transferases and nucleic acids encoding the same” (National Institute of Advanced Industrial Science and …, priority 2002, dated 2012):

Tests used:
Assay type in all cases: biochemical
[1] = target: T1, NGalNAc-T2 (Homo sapiens, UniProt Q6L9W6, K411R); test: Requirements of divalent cations in the activity
From the text: (§1) In addition, the value (263.21 dpm) of MES (pH 6.75) was adopted as a blank value in the case of a non-enzyme. Further, when pH of HEPES buffer was 7.4 for NGalNAc-T1 and 6.75 for NGalNAc-T2, the highest value was shown. […] Hereinafter, MES (pH 6.5) was used in each of experiments.
(§2) Generally, glycosyl transferases require frequently divalent cations. The activity of each enzyme was studied by adding various divalent cations. Consequently, the high values were represented when Mn^2+ in NGalNAc-T1, and Mg^2+, Mn^2+ and Co^2+ in NGalNAc-T2 were added (see Table 5). […] From the above results, it was explained that both enzymes require divalent cations.

[2] = target: T2, NGalNAc-T1 (Homo sapiens, UniProt Q76KP1); test: Requirements of divalent cations in the activity
T2 sequence (Q76KP1 62-1039): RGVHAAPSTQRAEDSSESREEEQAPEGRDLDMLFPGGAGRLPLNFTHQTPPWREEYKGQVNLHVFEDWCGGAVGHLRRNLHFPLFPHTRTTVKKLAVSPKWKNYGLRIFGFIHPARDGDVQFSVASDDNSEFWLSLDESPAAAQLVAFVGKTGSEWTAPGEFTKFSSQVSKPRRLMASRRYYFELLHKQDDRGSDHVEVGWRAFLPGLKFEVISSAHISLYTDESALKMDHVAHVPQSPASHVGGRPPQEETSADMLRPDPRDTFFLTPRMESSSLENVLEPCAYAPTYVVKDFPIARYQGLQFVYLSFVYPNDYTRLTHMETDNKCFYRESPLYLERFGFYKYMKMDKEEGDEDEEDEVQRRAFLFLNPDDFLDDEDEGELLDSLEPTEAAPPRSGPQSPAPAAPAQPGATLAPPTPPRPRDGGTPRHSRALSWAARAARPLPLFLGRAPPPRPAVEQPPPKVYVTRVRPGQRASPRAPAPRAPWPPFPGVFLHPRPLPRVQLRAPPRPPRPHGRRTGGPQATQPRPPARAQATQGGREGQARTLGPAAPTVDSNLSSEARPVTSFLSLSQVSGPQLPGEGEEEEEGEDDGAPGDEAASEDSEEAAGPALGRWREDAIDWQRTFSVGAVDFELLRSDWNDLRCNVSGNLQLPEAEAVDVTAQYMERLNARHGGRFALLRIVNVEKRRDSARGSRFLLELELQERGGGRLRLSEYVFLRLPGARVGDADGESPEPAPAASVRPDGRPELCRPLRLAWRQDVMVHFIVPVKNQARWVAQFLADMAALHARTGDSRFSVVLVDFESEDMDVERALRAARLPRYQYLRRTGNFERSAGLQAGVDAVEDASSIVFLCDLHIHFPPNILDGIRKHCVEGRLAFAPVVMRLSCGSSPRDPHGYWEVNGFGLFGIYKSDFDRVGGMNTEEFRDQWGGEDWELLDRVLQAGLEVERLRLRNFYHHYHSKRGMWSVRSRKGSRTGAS
From the text: as §1, §2

[3] = target: T1, NGalNAc-T2; test: Search for acceptor substrates, each acceptor by itself; conditions: acceptor 10 nmol/20 μl by itself
Method: (§3) The acceptor substrates were prepared so that each of Gal-α-pNp, Gal-β-oNp, GalNAc-α-Bz, GalNAc-β-pNp, GlcNAc-α-pNp, GlcNAc-β-pNp, Glc-α-pNp, Glc-β-pNp, GlcA-β-pNp, Fuc-α-pNp, Man-α-pNp (thereinbefore, CALBIOCHEM Co.), Xyl-α-pNp, Xyl-β-pNp (thereinbefore, SIGMA Co.) was included in 2.5 nmol/20 μl. Further, the solutions of various donor substrates (UDP-GalNAc, UDP-GlcNAc, UDP-Gal, GDP-Man, UDP-GlcA, UDP-Xyl and GDP-Fuc, thereinbefore, SIGMA Co.) are shown in Table 3.
(§4) All of reaction times were 16 hours. After reaction, non-reactive acceptor substrates with radioactivity were removed with SepPack C18 column (Waters CO.), and radioactivity from donor substrates integrated into acceptor substrates was determined with a liquid scintillation counter.
(§5) Further, in order to investigate acceptors, reactions were performed using each acceptor (10 nmol/20 μl) by itself. As a result, significant radioactivity was detected in the case of GlcNAc-β-pNp (NGalNAc-T1: 256.26 dpm, NGalNAc-T2: 1221.22 dpm). Based on the above results, it was explained that both of NGalNAc-T1 and NGalNAc-T2 are glycosyl transferases capable of transferring GalNAc to GlcNAc-T.

[4] = target: T2, NGalNAc-T1; test: as above; conditions: acceptor 10 nmol/20 μl by itself
Method: as §3, §4, §5

[5] = target: T1, NGalNAc-T2; test: Assay for acceptor substrates of glycosyl-transferase activities (GalNAc-T assay, HPLC); conditions: Table 6, O-glycan type acceptors 500 μM; GlcNAcβ-Bz = 100
Method: (§6) For the reaction of GalNAc-T assay, 50 mM MES buffer (pH 6.5) containing 0.1% triton X-100, 1 mM UDP-GalNAc, 10 mM MnCl2 and 500 μM each acceptor substrate was used. A 10 μl of enzyme solution for 20 μl of each reaction mixture were added and incubated at 37° C. for various periods. After the incubation the mixture was filtrated with Ultrafree-MC column (Millipore, Bedford, Mass.), and 10 μl aliquot was subjected to reversed-phase high performance liquid chromatography (HPLC) on an ODS-80Ts QA column (4.6×250 mm; Tosoh, Tokyo, Japan). A 0.1% TFA/H2O with 12% acetonitrile was used as a running solution. An ultraviolet spectrophotometer (absorbance at 210 nm), SPD-10AVP (Shimazu, Kyoto, Japan) was used for detection of the peaks. When the pyridyl amino-labeled oligosaccharides were utilized as acceptor substrates, 50 nM substrates were added into the reaction mixtures. For the analyses of the products derived from pyridyl amino labeled oligosaccharides, 100 mM acetic acid/triethylamine (pH4.0) was used as a running solution and the products were eluted with a 30-70% gradient of 1% 1-butanol in running solution at a flow rate of 1.0 ml/min at 55° C.
(§7) To investigate the specificity for acceptor substrates, N- and O-glycans containing GlcNAc on their non-reducing termini were utilized.

[6] = target: T2, NGalNAc-T1; test: as above; conditions: Table 6, O-glycan type acceptors 500 μM; GlcNAcβ-Bz = 100
Method: as §6, §7

[7] = target: T1, NGalNAc-T2; test: Search for donor substrates, radioactive glycosyltransferase assay; conditions: mixed mono-saccharide acceptor substrates, 16 hours
Method: (§8) 15 μg of pFLAG-NGalNAc-T1 or pFLAG-NGalNAc-T2 was induced into 2×10^6 of COS-1, cells which were cultured overnight in DMEM (Dulbecco's modified Eagle's medium) including 10% FCS (fetal calf serum), using Lipofectamine 2000 (Invitrogen Co.) as a protocol provided by the same company. A supernatant of 48-72 hours was collected. The supernatant was mixed with NaN3 (0.05%), NaCl (150 mM), CaCl2 (2 mM) and an anti-M1 resin (Sigma Co.) (50 μl), and the mixture was stirred overnight at 4° C. The solution of reaction mixture was centrifuged (3000 rpm, 5 min, 4° C.) to collect a pellet. The pellet was combined with 900 μl of 2 mM CaCl2/TBS and re-centrifuged (2000 rpm, 5 min, 4° C.), after which the pellet was suspended in 200 μl of 1 mM CaCl2/TBS to give a sample for assaying activity (NGalNAc-T1 or NGalNAc-T2 enzyme solution).
(§9) A search for a donor substrate of the enzyme of the present invention was performed on various mono-saccharide acceptor substrates, using […] of enzyme solution and various acceptor substrates.
as §3, §4

[8] = target: T2, NGalNAc-T1; test: as above; conditions: mixed mono-saccharide acceptor substrates, 16 hours
Method: as §8, §9, §3, §4

[9] = divalent cation etc. added, MES (pH 6.5)
[10] = divalent cation etc. added, MES (pH 6.5), blank 263.21 subtracted

| SMILES | Incorporation of radioactivity (A) [1, 9] | (A) − (B) [1, 10] | Incorporation of radioactivity (A) [2, 9] | (A) − (B) [2, 10] | also measured |
| --- | --- | --- | --- | --- | --- |
| [Ca+2].[Cl-].[Cl-] [CaCl2] | 217.83 dpm | −45.38 dpm | 230.78 dpm | −32.43 dpm |  |
| O=S(=O)([O-])[O-].[Cd+2] [CdSO4] | 217.92 dpm | −45.29 dpm | 203.39 dpm | −59.82 dpm |  |
| [Cl-].[Cl-].[Co+2] [CoCl2] |  |  |  |  | enzyme activity on adding divalent cation, in words [1]: high values; (A) − (B) ([1]; pH 6.5): 867.42 dpm; Incorporation of radioactivity (A) ([1]; pH 6.5): 1130.63 dpm; (A) − (B) ([2]; pH 6.5): −22.30 dpm; Incorporation of radioactivity (A) ([2]; pH 6.5): 240.91 dpm |
| [Cl][Cu][Cl] [CuCl2] | 218.35 dpm | −44.86 dpm | 278.77 dpm | 15.56 dpm |  |
| O=C(O)CN(CCN(CC(=O)O)CC(=O)O)CC(=O)O [EDTA] | 235.28 dpm | −27.93 dpm | 242.38 dpm | −20.83 dpm |  |
| CC(=O)N[C@H]1[C@H](Oc2ccc([N+](=O)[O-])cc2)O[C@H](CO)[C@@H](O)[C@@H]1O [GlcNAc-β-pNp] |  |  |  |  | radioactivity detected [3]: 1221.22 dpm; radioactivity detected [4]: 256.26 dpm |
| CC(=O)NC1C(OC2C(O)C(CO)OC(Oc3ccc([N+](=O)[O-])cc3)C2NC(C)=O)OC(CO)C(O)C1O (centres unmarked) [GlcNAcβ1-3GalNAcα-pNp] |  |  |  |  | Relative activity (%) [5]: 32.3%; Relative activity (%) [6]: 20.0% |
| CC(=O)N[C@H]1[C@H](OC[C@H]2O[C@H](Oc3ccc([N+](=O)[O-])cc3)[C@H](NC(C)=O)[C@@H](O[C@@H]3O[C@H](CO)[C@H](O)[C@H](O)[C@H]3O)[C@H]2O)O[C@H](CO)[C@@H](O)[C@@H]1O [GlcNAcβ1-6(Galβ1-3)GalNAcα-pNp] |  |  |  |  | Relative activity (%) [5]: 11.4%; Relative activity (%) [6]: 15.2% |
| CC(=O)N[C@H]1[C@@H](Oc2ccc([N+](=O)[O-])cc2)O[C@H](CO[C@@H]2O[C@H](CO)[C@@H](O)[C@H](O)[C@H]2NC(C)=O)[C@H](O)[C@@H]1O [GlcNAcβ1-6GalNAcα-pNp] |  |  |  |  | Relative activity (%) [5]: 220.4%; Relative activity (%) [6]: 190.7% |
| CC(=O)N[C@H]1[C@H](OCc2ccccc2)O[C@H](CO)[C@@H](O)[C@@H]1O [GlcNAcβ-Bz] |  |  |  |  | Relative activity (%) [5]: 100%; Relative activity (%) [6]: 100% |
| [Cl-].[Cl-].[Mg+2] [MgCl2] | 3124.16 dpm | 2860.95 dpm | 256.36 dpm | −6.85 dpm | enzyme activity on adding divalent cation, in words [1]: high values |
| [Cl][Mn][Cl] [MnCl2] | 1484.43 dpm | 1221.22 dpm | 519.47 dpm | 256.26 dpm | enzyme activity on adding divalent cation, in words [1]: high values; enzyme activity on adding divalent cation, in words [2]: high values |
| CC(=O)N[C@H]1[C@@H](OP(=O)(O)OP(=O)(O)OC[C@H]2O[C@@H](n3ccc(=O)[nH]c3=O)[C@H](O)[C@@H]2O)O[C@H](CO)[C@H](O)[C@@H]1O [UDP-GalNAc, UDP-N-acetyl-D-galactosamine] |  |  |  |  | activity with donor substrate (radioactivity integrated into acceptor substrates) [7]: highest activity; activity with donor substrate (radioactivity integrated into acceptor substrates) [8]: highest activity |
| O=C(O)[C@H]1O[C@H](OP(=O)(O)OP(=O)(O)OC[C@H]2O[C@@H](n3ccc(=O)[nH]c3=O)[C@H](O)[C@@H]2O)[C@H](O)[C@@H](O)[C@@H]1O [UDP-GlcA] |  |  |  |  | activity with donor substrate (radioactivity integrated into acceptor substrates) [7]: little background; activity with donor substrate (radioactivity integrated into acceptor substrates) [8]: little background |
| [Cl-].[Cl-].[Zn+2] [ZnCl2] | 187.59 dpm | −75.62 dpm | 210.29 dpm | −52.92 dpm |  |
